Legend:
[1] = molecular target: T1, Endothelin-converting enzyme 1 (Homo sapiens, UniProt P42892); assay: Inhibition of endothelin-converting enzyme in human umbilical vein endothelial cells; format: cell-based, Endothelial cell
T1 sequence (P42892 whole entry): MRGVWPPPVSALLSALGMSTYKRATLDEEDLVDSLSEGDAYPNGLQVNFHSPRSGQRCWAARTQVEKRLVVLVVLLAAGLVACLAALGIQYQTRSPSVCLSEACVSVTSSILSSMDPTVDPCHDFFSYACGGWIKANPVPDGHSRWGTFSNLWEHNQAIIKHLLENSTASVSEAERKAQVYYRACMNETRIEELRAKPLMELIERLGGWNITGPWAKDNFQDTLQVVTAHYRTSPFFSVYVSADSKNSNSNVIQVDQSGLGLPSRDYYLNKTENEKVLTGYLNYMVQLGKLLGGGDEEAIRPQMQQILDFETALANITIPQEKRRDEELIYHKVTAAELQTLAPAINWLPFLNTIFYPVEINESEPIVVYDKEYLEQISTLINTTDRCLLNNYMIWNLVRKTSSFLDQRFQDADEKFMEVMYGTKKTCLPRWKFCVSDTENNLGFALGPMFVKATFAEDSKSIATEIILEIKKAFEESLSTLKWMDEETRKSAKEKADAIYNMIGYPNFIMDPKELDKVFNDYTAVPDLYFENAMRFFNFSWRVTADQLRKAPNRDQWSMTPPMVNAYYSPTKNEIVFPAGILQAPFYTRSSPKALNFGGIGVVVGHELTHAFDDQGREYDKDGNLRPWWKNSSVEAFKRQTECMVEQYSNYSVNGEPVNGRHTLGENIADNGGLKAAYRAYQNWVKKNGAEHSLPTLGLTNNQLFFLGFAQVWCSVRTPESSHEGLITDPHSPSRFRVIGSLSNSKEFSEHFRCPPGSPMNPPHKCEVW

Neprilysin = Neprilysin (Homo sapiens, UniProt P08473); assay: Inhibition of neutral endopeptidase in human umbilical vein endothelial cells; format: cell-based, Endothelial cell
Chain of Neprilysin (P08473 whole entry): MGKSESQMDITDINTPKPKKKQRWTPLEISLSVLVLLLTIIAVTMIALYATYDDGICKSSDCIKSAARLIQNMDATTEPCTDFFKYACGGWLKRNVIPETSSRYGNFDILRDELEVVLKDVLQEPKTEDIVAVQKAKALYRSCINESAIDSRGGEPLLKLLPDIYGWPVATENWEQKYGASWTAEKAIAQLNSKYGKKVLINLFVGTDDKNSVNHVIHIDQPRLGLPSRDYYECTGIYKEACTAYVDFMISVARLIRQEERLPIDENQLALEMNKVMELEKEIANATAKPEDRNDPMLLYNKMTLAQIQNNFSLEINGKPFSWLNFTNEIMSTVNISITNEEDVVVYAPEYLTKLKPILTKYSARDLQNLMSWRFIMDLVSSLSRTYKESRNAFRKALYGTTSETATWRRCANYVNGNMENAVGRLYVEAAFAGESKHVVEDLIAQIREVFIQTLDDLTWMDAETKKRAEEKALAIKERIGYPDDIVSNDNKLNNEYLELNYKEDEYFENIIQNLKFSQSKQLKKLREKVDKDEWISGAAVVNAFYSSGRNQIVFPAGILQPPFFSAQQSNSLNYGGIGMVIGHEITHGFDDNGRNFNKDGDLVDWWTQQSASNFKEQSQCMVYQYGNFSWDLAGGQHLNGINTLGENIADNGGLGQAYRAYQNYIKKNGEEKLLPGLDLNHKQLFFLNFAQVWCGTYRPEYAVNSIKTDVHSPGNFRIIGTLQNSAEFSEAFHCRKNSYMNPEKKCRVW

O=C(N[C@@H](Cc1ccccc1)P(=O)(O)CC(Cc1ccccc1)C(=O)N[C@H](Cc1ccccc1)C(=O)O)OCc1ccccc1 (stereo partly drawn)
IC50 [1]: > 100 µM | IC50 (Neprilysin): > 60 µM

O=C(O)CNC(=O)C(Cc1ccccc1)CP(=O)(O)[C@H](Cc1ccccc1)NC(=O)OCc1ccccc1 (stereo partly drawn)
IC50 [1]: 80 µM | IC50 (Neprilysin): 0.9 µM

O=C(O)[C@H](Cc1c[nH]c2ccccc12)NC(=O)[C@H](Cc1ccccc1)NP(=O)(O)CCCCc1ccccc1
IC50 [1]: 0.4 µM

CC(C)[C@H](NC(=O)C(Cc1ccccc1)CP(=O)(O)[C@H](Cc1ccccc1)NC(=O)OCc1ccccc1)C(N)=O (stereo partly drawn)
IC50 [1]: 20 µM

N=C(N)NCCCC(NC(=O)C(Cc1ccccc1)CP(=O)(O)[C@H](Cc1ccccc1)NC(=O)OCc1ccccc1)C(=O)O (mixture of isomers)
IC50 [1]: 4.3 µM | IC50 (Neprilysin): 0.8 µM

CCC(C)C(NC(=O)C(Cc1ccccc1)CP(=O)(O)[C@H](Cc1ccccc1)NC(=O)OCc1ccccc1)C(=O)O (mixture of isomers)
IC50 [1]: 4 µM

CC(C)[C@@H](NC(=O)C(Cc1ccccc1)CP(=O)(O)[C@H](Cc1ccccc1)NC(=O)OCc1ccccc1)C(=O)O (mixture of isomers)
IC50 [1]: 60 µM

O=C(O)CCC(NC(=O)C(Cc1ccccc1)CP(=O)(O)[C@H](Cc1ccccc1)NC(=O)OCc1ccccc1)C(=O)O (mixture of isomers)
IC50 [1]: 25 µM

O=C(O)CCNC(=O)C(Cc1ccccc1)CP(=O)(O)[C@H](Cc1ccccc1)NC(=O)OCc1ccccc1 (mixture of isomers)
IC50 [1]: 50 µM | IC50 (Neprilysin): 2.3 µM

O=C(N[C@@H](Cc1ccccc1)P(=O)(O)CC(Cc1ccccc1)C(=O)NC(Cc1c[nH]cn1)C(=O)O)OCc1ccccc1 (mixture of isomers)
IC50 [1]: 20 µM | IC50 (Neprilysin): 10 µM

O=C(O)CC(NC(=O)C(Cc1ccccc1)CP(=O)(O)[C@H](Cc1ccccc1)NC(=O)OCc1ccccc1)C(=O)O (mixture of isomers)
IC50 [1]: 30 µM

NCCCCC(NC(=O)C(Cc1ccccc1)CP(=O)(O)[C@H](Cc1ccccc1)NC(=O)OCc1ccccc1)C(=O)O (mixture of isomers)
IC50 [1]: 30 µM | IC50 (Neprilysin): > 100 µM

CC(NC(=O)C(Cc1ccccc1)CP(=O)(O)[C@H](Cc1ccccc1)NC(=O)OCc1ccccc1)C(=O)O (mixture of isomers)
IC50 [1]: 8 µM | IC50 (Neprilysin): 0.3 µM

CC(C)C(NC(=O)C(Cc1ccccc1)CP(=O)(O)[C@H](Cc1ccccc1)NC(=O)OCc1ccccc1)C(=O)O (mixture of isomers)
IC50 [1]: 1.7 µM

NC(=O)CC(NC(=O)C(Cc1ccccc1)CP(=O)(O)[C@H](Cc1ccccc1)NC(=O)OCc1ccccc1)C(=O)O (mixture of isomers)
IC50 [1]: 20 µM | IC50 (Neprilysin): 10 µM

NC(=O)CCC(NC(=O)C(Cc1ccccc1)CP(=O)(O)[C@H](Cc1ccccc1)NC(=O)OCc1ccccc1)C(=O)O (mixture of isomers)
IC50 [1]: 6 µM | IC50 (Neprilysin): 15 µM

O=C(N[C@@H](Cc1ccccc1)P(=O)(O)CC(Cc1ccccc1)C(=O)NC(Cc1ccc(O)cc1)C(=O)O)OCc1ccccc1 (mixture of isomers)
IC50 [1]: 12 µM | IC50 (Neprilysin): 2.3 µM

O=C(N[C@@H](Cc1ccccc1)P(=O)(O)CC(Cc1ccccc1)C(=O)NC(Cc1ccccc1)C(=O)O)OCc1ccccc1 (mixture of isomers)
IC50 [1]: 10 µM | IC50 (Neprilysin): 0.8 µM

O=C(N[C@@H](Cc1ccccc1)P(=O)(O)CC(Cc1ccccc1)C(=O)NC(Cc1c[nH]c2ccccc12)C(=O)O)OCc1ccccc1 (mixture of isomers)
IC50 [1]: 1.1 µM | IC50 (Neprilysin): 1.4 µM

O=C(O)CC[C@@H](NC(=O)C(Cc1ccccc1)CP(=O)(O)[C@H](Cc1ccccc1)NC(=O)OCc1ccccc1)C(=O)O (mixture of isomers)
IC50 [1]: > 100 µM

N=C(N)NCCC[C@@H](NC(=O)C(Cc1ccccc1)CP(=O)(O)[C@H](Cc1ccccc1)NC(=O)OCc1ccccc1)C(=O)O (mixture of isomers)
IC50 [1]: > 100 µM | IC50 (Neprilysin): > 60 µM

CCCCC(NC(=O)C(Cc1ccccc1)CP(=O)(O)[C@H](Cc1ccccc1)NC(=O)OCc1ccccc1)C(=O)O (mixture of isomers)
IC50 [1]: 12 µM

CC(O)C(NC(=O)C(Cc1ccccc1)CP(=O)(O)[C@H](Cc1ccccc1)NC(=O)OCc1ccccc1)C(=O)O (mixture of isomers)
IC50 [1]: 5 µM | IC50 (Neprilysin): 10 µM

CC(C)CC(NC(=O)C(Cc1ccccc1)CP(=O)(O)[C@H](Cc1ccccc1)NC(=O)OCc1ccccc1)C(=O)O (mixture of isomers; form 1)
IC50 [1]: 23 µM

CC(C)CC(NC(=O)C(Cc1ccccc1)CP(=O)(O)[C@H](Cc1ccccc1)NC(=O)OCc1ccccc1)C(=O)O (mixture of isomers; form 2)
IC50 [1]: 20 µM

C[C@H](O)[C@@H](NC(=O)C(Cc1ccccc1)CP(=O)(O)[C@H](Cc1ccccc1)NC(=O)OCc1ccccc1)C(=O)O (single isomer, unassigned)
IC50 ([1]; endothelial cell): > 100 µM | IC50 (Neprilysin): 50 µM

O=C(N[C@@H](Cc1ccccc1)P(=O)(O)CC(Cc1ccccc1)C(=O)NC(Cc1ccc(O)cc1)C(=O)O)OCc1ccccc1 (single isomer, unassigned)
IC50 [1]: 7 µM | IC50 (Neprilysin): 1 µM

C[C@H](O)[C@@H](NC(=O)C(Cc1ccccc1)CP(=O)(O)[C@H](Cc1ccccc1)NC(=O)OCc1ccccc1)C(=O)O (stereo in doubt)
IC50 [1]: > 100 µM | IC50 (Neprilysin): > 100 µM

CC(C)[C@@H](NC(=O)C(Cc1ccccc1)CP(=O)(O)[C@H](Cc1ccccc1)NC(=O)OCc1ccccc1)C(=O)O (stereo in doubt)
IC50 [1]: > 100 µM

NCCCCC(NC(=O)C(Cc1ccccc1)CP(=O)(O)[C@H](Cc1ccccc1)NC(=O)OCc1ccccc1)C(=O)O (stereo in doubt)
IC50 [1]: 60 µM | IC50 (Neprilysin; endothelial cell): > 100 µM

CC(C)C(NC(=O)C(Cc1ccccc1)CP(=O)(O)[C@H](Cc1ccccc1)NC(=O)OCc1ccccc1)C(=O)O (stereo in doubt)
IC50 [1]: 80 µM

NC(=O)CCC(NC(=O)C(Cc1ccccc1)CP(=O)(O)[C@H](Cc1ccccc1)NC(=O)OCc1ccccc1)C(=O)O (stereo in doubt)
IC50 [1]: > 100 µM | IC50 (Neprilysin): > 100 µM

O=C(N[C@@H](Cc1ccccc1)P(=O)(O)CC(Cc1ccccc1)C(=O)NC(Cc1c[nH]c2ccccc12)C(=O)O)OCc1ccccc1 (stereo in doubt)
IC50 [1]: 5.8 µM | IC50 (Neprilysin): 10 µM
